In general, TGI refers to the concentration giving total growth inhibition. Low values mean more potent growth arrest, high ones less potent growth arrest.

Each structure is given as a SMILES string.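 Protocol summary: plate cells (96-well), add compound at 5 concentrations, incubate 48 h, interpolate endpoints linearly. The concentration for full growth arrest is given as TGI.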 Some results are limits rather than exact numbers.

Among the test systems are BT-549 breast; CAKI-1 renal; CCRF-CEM leukemia; EKVX NSCLC; HCT-15 colon; OVCAR-4 ovarian; RPMI-8226 leukemia; RXF 393 renal; SK-MEL-2 melanoma; SNB-19 CNS.
Common to all, as to assay: DTP human tumour cell line panel, 48 h

In the case of `O=C(O)C(CSC(c1ccccc1)(c1ccccc1)c1ccccc1)N=Cc1cccs1` (stereo not given), the TGI in the assay on BT-549 breast was over 27.5 µM; with CAKI-1 renal, over 54.7 µM; in the assay with CCRF-CEM leukemia, over 100 µM; in the assay on EKVX NSCLC, over 100 µM; in the assay on HCT-15 colon, over 100 µM; with OVCAR-4 ovarian, over 100 µM. The TGI with RPMI-8226 leukemia was over 100 µM; in the assay with RXF 393 renal it was over 19.6 µM; with SK-MEL-2 melanoma it was 27.4 µM; in the assay with SNB-19 CNS, over 100 µM.
For the compound `Nc1ccccc1N/C(=C\C(=O)C(Cl)(Cl)Cl)c1ccccc1`, the TGI was 91.6 µM in the assay with BT-549 breast; over 100 µM with CAKI-1 renal; over 100 µM in the assay with CCRF-CEM leukemia; 63.1 µM with EKVX NSCLC; 80.4 µM in the assay on HCT-15 colon; over 100 µM in the assay on OVCAR-4 ovarian. The total growth inhibition concentration (TGI) in the assay with RPMI-8226 leukemia is 86 µM; in the assay on RXF 393 renal, 53.4 µM; in the assay with SK-MEL-2 melanoma, 28.6 µM; in the assay with SNB-19 CNS, over 100 µM.
With `O=C(CCN1CC2CCC(CC2)C1)c1cccs1`, the TGI in the assay with BT-549 breast is 39 µM; with CAKI-1 renal, 34.5 µM; in the assay on CCRF-CEM leukemia, 4.81 µM; with EKVX NSCLC it was 42.6 µM; in the assay with HCT-15 colon, 44.1 µM; in the assay on OVCAR-4 ovarian, over 74.6 µM. The TGI with RPMI-8226 leukemia was 12.4 µM; with RXF 393 renal it was 37 µM; with SK-MEL-2 melanoma it was 33.6 µM; with SNB-19 CNS, over 100 µM.
For `N#CC(c1ccccc1)N1CCCN(C(C#N)c2ccccc2)C1c1ccccc1O` (stereo not given), the TGI in the assay on BT-549 breast, in the assay with CAKI-1 renal, in the assay on CCRF-CEM leukemia, with EKVX NSCLC, with HCT-15 colon and in the assay on OVCAR-4 ovarian was over 100 µM in each case. Besides, the TGI in the assay with RPMI-8226 leukemia, in the assay on RXF 393 renal, in the assay with SK-MEL-2 melanoma and in the assay on SNB-19 CNS was over 100 µM each time.
Turning to `O=S1(=O)OC(c2ccc(O)cc2)(c2ccc(O)cc2)c2ccccc21`, the TGI with BT-549 breast, with CAKI-1 renal, with CCRF-CEM leukemia, in the assay with EKVX NSCLC, with HCT-15 colon and in the assay on OVCAR-4 ovarian was over 100 µM in each case. The TGI in the assay with RPMI-8226 leukemia, in the assay on RXF 393 renal, in the assay on SK-MEL-2 melanoma and in the assay with SNB-19 CNS was over 100 µM in each case.
On to `Nc1nc(N)c2c(n1)NC(c1ccccc1)CC(/C=C/c1ccc(Cl)cc1)=N2` (stereo not given), for which the TGI came out at 37.9 µM in the assay with BT-549 breast; 26.4 µM in the assay on CAKI-1 renal; 50.4 µM in the assay on CCRF-CEM leukemia; 17.3 µM in the assay with EKVX NSCLC; 23.3 µM in the assay with HCT-15 colon; 20.5 µM with OVCAR-4 ovarian. For the same compound, the TGI in the assay on RPMI-8226 leukemia is 12.7 µM; with RXF 393 renal it was 16.7 µM; in the assay with SK-MEL-2 melanoma, 42.7 µM; in the assay with SNB-19 CNS, 29.1 µM.
As for `COc1ccc(N=c2ssc(C(=S)Nc3ccc(OC)cc3)c2S)cc1`, the concentration for total growth inhibition (TGI) with BT-549 breast, in the assay on CAKI-1 renal, with CCRF-CEM leukemia, with EKVX NSCLC, in the assay with HCT-15 colon and in the assay on OVCAR-4 ovarian was over 100 µM each time. Besides, the TGI in the assay with RPMI-8226 leukemia, with RXF 393 renal, in the assay on SK-MEL-2 melanoma and in the assay on SNB-19 CNS was over 100 µM throughout.
On to `C[C@]12CCC(=O)C=C1CC[C@@H]1[C@@H]2[C@@H](O)C[C@@]2(C)[C@H]1CC[C@]2(O)C(=O)CO`, for which the TGI with BT-549 breast, in the assay with CAKI-1 renal, in the assay on CCRF-CEM leukemia, with EKVX NSCLC, in the assay on HCT-15 colon and with OVCAR-4 ovarian was over 100 µM in each case. Besides, the TGI with RPMI-8226 leukemia, in the assay with RXF 393 renal, in the assay on SK-MEL-2 melanoma and in the assay with SNB-19 CNS was over 100 µM throughout.
Take `COc1c2c(cc3c1C(O)N1CC[C@]34[C@H]3O[C@H]3[C@H](OC)C[C@@H]14)OCO2` (stereo not given in full): the TGI is over 100 µM with BT-549 breast; over 100 µM with CAKI-1 renal; 14.2 µM in the assay on CCRF-CEM leukemia; over 100 µM in the assay on EKVX NSCLC; over 100 µM in the assay on HCT-15 colon; over 100 µM with OVCAR-4 ovarian. For the same compound, the TGI in the assay on RPMI-8226 leukemia is over 100 µM; with RXF 393 renal, over 100 µM; with SK-MEL-2 melanoma, 83.8 µM; in the assay with SNB-19 CNS, over 100 µM.
